According to patent US8618152B2, “Inhibitors of serine proteases, particularly HCV NS3-NS4A proteases” (Vertex Pharmaceuticals Incorporated, priority 2003, dated 2013):
*1 amine or outer side, *2 acyl side, *3 side chain or, on linkers, in order; H or OH if unused. Where a SMILES comes first, the peptide text is derived from it. [ ]: non-standard residue; d: D form. The star is where a group is joined. ξ: configuration not given here. Pro(trans-3-iPr) = CC(C)[C@H]1CCN[C@@H]1C(=O)O; Pro(3S-Et) = CC[C@H]1CCN[C@@H]1C(=O)O; Phe(2-Me) = Cc1ccccc1C[C@H](N)C(=O)O; Pyrazinecarbonyl = O=C(c1cnccn1)*; X1 = CCCC(N[*:1])C(=O)C(=O)[*:2]; Ile(3ξ) = CCC(C)[C@H](N)C(=O)O; aThr = C[C@H](O)[C@H](N)C(=O)O; Chg = N[C@H](C(=O)O)C1CCCCC1; Tle = CC(C)(C)[C@H](N)C(=O)O

molecular target: HCV NS3-NS4A protease (tNS3 with KK4A) (Hepatitis C virus genotype 1a, UniProt P27958); assay: HCV Ki assay (HPLC microbore separation of 5AB substrate and products); format: biochemical; settings: 25 nM tNS3, 25 μM KK4A, 25 μM 5AB substrate, 20 min at 30 C; read-out: Ki
Experimental: HPLC Microbore Method for Separation of 5AB Substrate and Products
Substrate: NH2-Glu-Asp-Val-Val-(alpha)Abu-Cys-Ser-Met-Ser-Tyr-COOH
A stock solution of 20 mM 5AB (or concentration of your choice) was made in DMSO w/0.2M DTT. This was stored in aliquots at −20 C.
Buffer: 50 mM HEPES, pH 7.8; 20% glycerol; 100 mM NaCl
Total assay volume was 100 μL
The buffer, KK4A, DTT, and tNS3 were combined; distributed 78 μL each into wells of 96 well plate. This was incubated at 30 C for ˜5-10 min.
2.5 μL of appropriate concentration of test compound was dissolved in DMSO (DMSO only for control) and added to each well. This was incubated at room temperature for 15 min.
Initiated reaction by addition of 20 μL of 250 μM 5AB substrate (25 μM concentration is equivalent or slightly lower than the Km for 5AB).
Incubated for 20 min at 30 C.
Terminated reaction by addition of 25 μL of 10% TFA
Transferred 120 μL aliquots to HPLC vials
Separated SMSY product from substrate and KK4A by the following method:
Microbore Separation Method:
Instrumentation: Agilent 1100
Column thermostated chamber G1316A
Diode array detector G1315A
Solvent A=HPLC grade water+0.1% TFA
Solvent B=HPLC grade acetonitrile+0.1% TFA
Stop time: 17 min Post-run time: 10 min.

Chain of HCV NS3-NS4A protease (tNS3 with KK4A) (P27958 1027-1208): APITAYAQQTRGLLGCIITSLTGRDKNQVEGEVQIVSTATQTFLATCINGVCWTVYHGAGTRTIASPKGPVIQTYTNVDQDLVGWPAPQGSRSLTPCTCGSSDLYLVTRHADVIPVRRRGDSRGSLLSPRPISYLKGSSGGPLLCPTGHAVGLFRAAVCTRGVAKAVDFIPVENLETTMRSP

SMILES | Ki [nM]
CCCC(NC(=O)[C@@H]1C(CC)CCN1C(=O)[C@@H](NC(=O)[C@@H](NC(=O)c1cnccn1)C(C)C)C(C)C)C(=O)C(=O)N[C@@H](Cc1ccccc1)C(=O)O (stereo partly shown) [Compound 5] | < 100
CCCC(NC(=O)[C@@H]1[C@@H](C(=O)OC)CCN1C(=O)[C@@H](NC(=O)[C@@H](NC(=O)c1cnccn1)C(C)C)C(C)C)C(=O)C(=O)N[C@@H](Cc1ccccc1)C(=O)O (stereo partly shown) [Compound 15] | 100 to 500
CCCC(NC(=O)[C@@H]1[C@@H](C(C)C)CCN1C(=O)[C@@H](NC(=O)[C@@H](NC(=O)c1cnccn1)C(C)C)C(C)C)C(=O)C(=O)N[C@@H](Cc1ccccc1)C(=O)O (stereo partly drawn) [Compound 16] (Pyrazinecarbonyl-VV[Pro(trans-3-iPr)][X1]F-OH) | 100 to 500
C=C[C@H]1CCN(C(=O)[C@@H](NC(=O)[C@@H](NC(=O)c2cnccn2)C(C)C)C(C)C)[C@@H]1C(=O)NC(CCC)C(=O)C(=O)N[C@@H](Cc1ccccc1)C(=O)O (stereo partly shown) [Compound 19] | 100 to 500
CCCC(NC(=O)[C@@H]1[C@@H](CC2CC2)CCN1C(=O)[C@@H](NC(=O)[C@@H](NC(=O)c1cnccn1)C(C)C)C(C)C)C(=O)C(=O)N[C@@H](Cc1ccccc1)C(=O)O (stereo partly shown) [Compound 20] | 100 to 500
CCCC(NC(=O)[C@@H]1[C@@H](C)CCN1C(=O)[C@@H](NC(=O)[C@@H](NC(=O)c1cnccn1)C(C)C)C(C)C)C(=O)C(=O)N[C@@H](Cc1ccccc1)C(=O)O (stereo partly shown) [Compound 22] | 100 to 500
CCCC(NC(=O)[C@@H]1[C@@H](CC)CCN1C(=O)[C@@H](NC(=O)[C@@H](NC(=O)c1cnccn1)C1CCCCC1)C(C)CC)C(=O)C(=O)NC1CC1 (stereo partly shown) [Compound 25] | 100 to 500
CCCC(NC(=O)[C@@H]1[C@@H](CC)CCN1C(=O)[C@@H](NC(=O)[C@@H](NC(=O)c1cnccn1)C1CCCCC1)C(C)C)C(=O)C(=O)N[C@@H](Cc1ccccc1)C(=O)O (stereo partly drawn) [Compound 26] (Pyrazinecarbonyl-[Chg]V[Pro(3S-Et)][X1]F-OH) | < 100
CCCC(NC(=O)[C@@H]1[C@@H](CC)CCN1C(=O)[C@@H](NC(=O)[C@H](Cc1ccccc1C)NC(=O)c1cnccn1)C(C)C)C(=O)C(=O)N[C@@H](Cc1ccccc1)C(=O)O (stereo partly drawn) [Compound 27] (Pyrazinecarbonyl-[Phe(2-Me)]V[Pro(3S-Et)][X1]F-OH) | < 100
CCCC(NC(=O)[C@@H]1[C@@H](CC)CCN1C(=O)[C@@H](NC(=O)[C@H](CC(C)C)NC(=O)c1cnccn1)C(C)C)C(=O)C(=O)N[C@@H](Cc1ccccc1)C(=O)O (stereo partly drawn) [Compound 28] (Pyrazinecarbonyl-LV[Pro(3S-Et)][X1]F-OH) | < 100
CCCC(NC(=O)[C@@H]1[C@@H](CC)CCN1C(=O)[C@@H](NC(=O)[C@@H](NC(=O)c1cnccn1)C1CCCCC1)C(C)CC)C(=O)C(=O)N[C@@H](Cc1ccccc1)C(=O)O (stereo partly drawn) [Compound 29] (Pyrazinecarbonyl-[Chg][Ile(3ξ)][Pro(3S-Et)][X1]F-OH) | < 100
CCCC(NC(=O)[C@@H]1[C@@H](CC)CCN1C(=O)[C@@H](NC(=O)[C@@H](NC(=O)c1cnccn1)C(C)C)C(C)CC)C(=O)C(=O)N[C@@H](Cc1ccccc1)C(=O)O (stereo partly drawn) [Compound 30] (Pyrazinecarbonyl-V[Ile(3ξ)][Pro(3S-Et)][X1]F-OH) | 100 to 500
CCCC(NC(=O)[C@@H]1[C@@H](CC)CCN1C(=O)[C@@H](NC(=O)[C@@H](NC(=O)c1cnccn1)C(C)C)C(C)(C)C)C(=O)C(=O)N[C@@H](Cc1ccccc1)C(=O)O (stereo partly drawn) [Compound 31] (Pyrazinecarbonyl-V[Tle][Pro(3S-Et)][X1]F-OH) | < 100
CCCC(NC(=O)[C@@H]1[C@@H](CC)CCN1C(=O)[C@@H](NC(=O)[C@@H](NC(=O)c1cnccn1)C(C)C)C1CCCCC1)C(=O)C(=O)N[C@@H](Cc1ccccc1)C(=O)O (stereo partly drawn) [Compound 32] (Pyrazinecarbonyl-V[Chg][Pro(3S-Et)][X1]F-OH) | 100 to 500
CCCC(NC(=O)[C@@H]1[C@@H](CC)CCN1C(=O)[C@@H](NC(=O)[C@@H](NC(=O)c1cnccn1)C(C)C)[C@H](C)OC)C(=O)C(=O)N[C@@H](Cc1ccccc1)C(=O)O (stereo partly drawn) [Compound 33] (Pyrazinecarbonyl-V[aThr](Me)[Pro(3S-Et)][X1]F-OH) | 100 to 500
CCCC(NC(=O)[C@@H]1[C@@H](CC)CCN1C(=O)[C@@H](NC(=O)[C@@H](NC(=O)c1cnccn1)C(C)C)[C@@H](C)OC)C(=O)C(=O)N[C@@H](Cc1ccccc1)C(=O)O (stereo partly drawn) [Compound 35] (Pyrazinecarbonyl-VT(Me)[Pro(3S-Et)][X1]F-OH) | > 500
CCCC(NC(=O)[C@@H]1[C@@H](CC)CCN1C(=O)[C@@H](NC(=O)[C@@H](NC(=O)c1cnccn1)C(C)C)[C@@H](C)OCC)C(=O)C(=O)N[C@@H](Cc1ccccc1)C(=O)O (stereo partly drawn) [Compound 36] (Pyrazinecarbonyl-VT(Et)[Pro(3S-Et)][X1]F-OH) | 100 to 500
CCCC(NC(=O)[C@@H]1[C@@H](CC)CCN1C(=O)[C@@H](NC(=O)[C@@H](NC(=O)c1cnccn1)C1CCCCC1)C1CCCCC1)C(=O)C(=O)N[C@@H](Cc1ccccc1)C(=O)O (stereo partly drawn) [Compound 42] (Pyrazinecarbonyl-[Chg][Chg][Pro(3S-Et)][X1]F-OH) | < 100
CCCC(NC(=O)[C@@H]1[C@@H](CC)CCN1C(=O)[C@@H](NC(=O)[C@@H](NC(=O)c1cnccn1)C1CCCCC1)C(C)C)C(=O)C(=O)N[C@@H](C)c1ccccc1 (stereo partly shown) [Compound 43] | 100 to 500
CCCC(NC(=O)[C@@H]1[C@@H](CC)CCN1C(=O)[C@@H](NC(=O)[C@@H](NC(=O)c1cnccn1)C1CCCCC1)C(C)C)C(=O)C(=O)NC1CC1 (stereo partly shown) [Compound 45] | > 500
CCCC(NC(=O)[C@@H]1[C@@H](CC)CCN1C(=O)[C@@H](NC(=O)[C@@H](NC(=O)c1cnccn1)C1CCCCC1)C1CCCCC1)C(=O)C(=O)NC1CC1 (stereo partly shown) [Compound 46] | 100 to 500
CCCC(NC(=O)[C@@H]1[C@@H](CC)CCN1C(=O)[C@@H](NC(=O)[C@@H](NC(=O)c1cnccn1)C1CCCCC1)C1CCCCC1)C(=O)C(=O)N[C@@H](C)c1ccccc1 (stereo partly shown) [Compound 50] | 100 to 500
CCCC(NC(=O)[C@@H]1[C@@H](CC)CCN1C(=O)[C@@H](NC(=O)[C@@H](NC(=O)c1cnccn1)C1CCCCC1)C(C)CC)C(=O)C(=O)N[C@@H](C)c1ccccc1 (stereo partly shown) [Compound 51] | 100 to 500
CCCC(NC(=O)[C@@H]1[C@@H](CC)CCN1C(=O)[C@@H](NC(=O)[C@@H](NC(=O)c1ncc[nH]1)C1CCCCC1)C(C)C)C(=O)C(=O)NC1CC1 (stereo partly shown) [Compound 53] | 100 to 500
CCCC(NC(=O)[C@@H]1[C@@H](C(C)CC)CCN1C(=O)[C@@H](NC(=O)[C@@H](NC(=O)c1cnccn1)C(C)C)C(C)C)C(=O)C(=O)N[C@@H](Cc1ccccc1)C(=O)O (stereo partly shown) [Compound 57] | < 100
